In PubChem BioAssay AID1259411 (Chemical Carcinogenesis Research Information System (CCRIS), 2018):
Activity calls are given as the source filed them. How the calls were made is not given here.

Test system: rodent carcinogenicity bioassays, tumor incidence
Assay: CCRIS carcinogenicity studies
How it was run: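 NCI-built, expert-reviewed records of carcinogenicity and related test outcomes (mutagenicity, tumor promotion/inhibition) compiled from published and report sources, historical span 1985-2011, not updated.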

## [O]=[Cd]
Species: HAMSTER, Strain/Sex: SYRIAN/MALE, Route: INHALATION, Dose: 0, 10 UG/M3 19 HR/D 5 D/WK FOR 65 WK FOR A TOTAL CADMIUM DOSE OF 0, 63 MG/M3 (STUDY DURATION: 113 WK), Dose: 0, 10 UG/M3 19 HR/D 5 D/WK FOR 65 WK FOR A TOTAL CADMIUM DOSE OF 0, 63 MG/M3 (STUDY DURATION: 113 WK)
  carcinogen call: inactive; negative
Species: HAMSTER, Strain/Sex: SYRIAN/MALE, Route: INHALATION, Dose: 0, 90 UG/M3 8 HR/D 5 D/WK FOR 65 WK FOR A TOTAL CADMIUM DOSE OF 0, 216 MG/M3 (STUDY DURATION: 113 WK), Dose: 0, 90 UG/M3 8 HR/D 5 D/WK FOR 65 WK FOR A TOTAL CADMIUM DOSE OF 0, 216 MG/M3 (STUDY DURATION: 113 WK)
  carcinogen call: inactive; negative
Species: HAMSTER, Strain/Sex: SYRIAN/MALE, Route: INHALATION, Dose: 0, 270 UG/M3 8 HR/D 5 D/WK FOR 53 WK FOR A TOTAL CADMIUM DOSE OF 0, 522 MG/M3 (STUDY DURATION: 70 WK), Dose: 0, 270 UG/M3 8 HR/D 5 D/WK FOR 53 WK FOR A TOTAL CADMIUM DOSE OF 0, 522 MG/M3 (STUDY DURATION: 70 WK)
  carcinogen call: inactive; negative
Species: RAT, Strain/Sex: FEMALE, Route: SUBCUTANEOUS, Dose: 25 MG ONCE, Tumor Site: Type of Lesion: INJECTION SITE: SARCOMA
  carcinogen call: active; positive
Species: RAT, Strain/Sex: FEMALE, Route: SUBCUTANEOUS, Dose: 25 MG, SINGLE DOSE, Tumor Site: Type of Lesion: INJECTION SITE
  carcinogen call: active; positive
Species: RAT, Strain/Sex: WISTAR/FEMALE, Route: INHALATION, Dose: 0, 30 UG/M3 8 HR/D,5D/WK FOR 18 MO (STUDY DURATION: 18 MO)
  carcinogen call: inactive; negative
Species: RAT, Strain/Sex: WISTAR/FEMALE, Route: INHALATION, Dose: 0, 30 UG/M3 CADMIUM OXIDE DUST 22 HR/D 7 D/WK FOR 18 MO (STUDY DURATION: 31 MO), Tumor Site: Type of Lesion: LUNG: TUMOR
  carcinogen call: active; positive
Species: RAT, Strain/Sex: WISTAR/FEMALE, Route: INHALATION, Dose: 0, 30 UG/M3 DUST 22 HR/D 7 D/WK FOR 18 MO (STUDY DURATION: 31 MO), Tumor Site: Type of Lesion: LUNG: ALVEOLAR/BRONCHIOLAR ADENOMA, ADENOCARCINOMA, SQUAMOUS CELL CARCINOMA
  carcinogen call: active; positive
Species: RAT, Strain/Sex: WISTAR/FEMALE, Route: INHALATION, Dose: 0, 30 UG/M3 OF CADMIUM OXIDE DUST 22 HR/D 7 D/WK FOR 18 MO (STUDY DURATION: 31 MO), Tumor Site: Type of Lesion: LUNG: ALVEOLAR/BRONCHIOLAR ADENOMA, ADENOCARCINOMA, SQUAMOUS CELL CARCINOMA
  carcinogen call: active; positive
Species: RAT, Strain/Sex: WISTAR/FEMALE, Route: INHALATION, Dose: 0, 90 UG/M3 CADMIUM OXIDE DUST 22 HR/D 7 D/WK FOR 4 MO (STUDY DURATION: 31 MO), Tumor Site: Type of Lesion: LUNG: TUMOR
  carcinogen call: active; positive
Species: RAT, Strain/Sex: WISTAR/FEMALE, Route: INHALATION, Dose: 0, 90 UG/M3 CADMIUM OXIDE DUST DISCONTINOUS EXPOSURE FOR 40 HR/WK FOR 6 MO (STUDY DURATION: 31 MO), Tumor Site: Type of Lesion: LUNG: TUMOR
  carcinogen call: active; positive
Species: RAT, Strain/Sex: WISTAR/FEMALE, Route: INHALATION, Dose: 0, 90 UG/M3 DUST 8 HR/D 5 D/WK FOR 6 MO (STUDY DURATION: 31 MO), Tumor Site: Type of Lesion: LUNG: ADENOCARCINOMA, SQUAMOUS CELL CARCINOMA
  carcinogen call: active; positive
Species: RAT, Strain/Sex: WISTAR/FEMALE, Route: INHALATION, Dose: 0, 90 UG/M3 DUST 22 HR/D 7 D/WK FOR 11 MO (STUDY DURATION: 31 MO), Tumor Site: Type of Lesion: LUNG: ALVEOLAR/BRONCHIOLAR ADENOMA, ADENOCARCINOMA, SQUAMOUS CELL CARCINOMA
  carcinogen call: active; positive
Species: RAT, Strain/Sex: WISTAR/FEMALE, Route: INHALATION, Dose: 0, 90 UG/M3 OF CADMIUM OXIDE DUST 22 HR/D 7 D/WK FOR 11 MO (STUDY DURATION: 31 MO), Tumor Site: Type of Lesion: LUNG: ALVEOLAR/BRONCHIOLAR ADENOMA, ADENOCARCINOMA, SQUAMOUS CELL CARCINOMA
  carcinogen call: active; positive
Species: RAT, Strain/Sex: WISTAR/FEMALE, Route: INHALATION, Dose: 0, 90 UG/M3 OF CADMIUM OXIDE DUST 40 HR/WK FOR 6 MO (STUDY DURATION: 31 MO)
  carcinogen call: inactive; negative
Species: RAT, Strain/Sex: WISTAR/MALE, Route: INHALATION, Dose: 0, 10 UG/M3 CADMIUM OXIDE FUME 22 HR/D 7 D/WK FOR 18 MO (STUDY DURATION: 31 MO)
  carcinogen call: inactive; negative
Species: RAT, Strain/Sex: WISTAR/MALE, Route: INHALATION, Dose: 0, 10 UG/M3 FUME 22 HR/D 7 D/WK FOR 18 MO (STUDY DURATION: 31 MO)
  carcinogen call: inactive; negative
Species: RAT, Strain/Sex: WISTAR/MALE, Route: INHALATION, Dose: 0, 10 UG/M3 OF CADMIUM OXIDE FUME 22 HR/D 7 D/WK FOR 18 MO (STUDY DURATION: 31 MO)
  carcinogen call: inactive; negative
Species: RAT, Strain/Sex: WISTAR/MALE, Route: INHALATION, Dose: 0, 30 UG/M3 CADMIUM OXIDE DUST 22 HR/D 7 D/WK FOR 18 MO (STUDY DURATION: 31 MO), Tumor Site: Type of Lesion: LUNG: ADENOMA OR ADENOCARCINOMA OR SQUAMOUS CELL TUMOR OR ADENOSQUAMOUS CARCINOMA
  carcinogen call: active; positive
Species: RAT, Strain/Sex: WISTAR/MALE, Route: INHALATION, Dose: 0, 30 UG/M3 CADMIUM OXIDE DUST 22 HR/D 7 D/WK FOR 18 MO (STUDY DURATION: 31 MO), Tumor Site: Type of Lesion: LUNG: TUMOR
  carcinogen call: active; positive
Species: RAT, Strain/Sex: WISTAR/MALE, Route: INHALATION, Dose: 0, 30 UG/M3 CADMIUM OXIDE DUST 22 HR/D 7 D/WK FOR 18 MO ADMINISTERED TO RATS MAINTAINED ON ZINC REDUCED (24 PPM) DIET (S, Tumor Site: Type of Lesion: LUNG: TUMOR
  carcinogen call: active; positive
Species: RAT, Strain/Sex: WISTAR/MALE, Route: INHALATION, Dose: 0, 30 UG/M3 CADMIUM OXIDE FUME 22 HR/D 7 D/WK FOR 18 MO (STUDY DURATION: 31 MO), Tumor Site: Type of Lesion: LUNG: TUMOR
  carcinogen call: active; positive
Species: RAT, Strain/Sex: WISTAR/MALE, Route: INHALATION, Dose: 0, 30 UG/M3 DUST 22 HR/D 7 D/WK FOR 18 MO (STUDY DURATION: 31 MO), Tumor Site: Type of Lesion: LUNG: ALVEOLAR/BRONCHIOLAR ADENOMA, ADENOCARCINOMA, SQUAMOUS CELL CARCINOMA
  carcinogen call: active; positive
Species: RAT, Strain/Sex: WISTAR/MALE, Route: INHALATION, Dose: 0, 30 UG/M3 DUST 22 HR/D 7 D/WK FOR 18 MO MAINTAINED ON ZN REDUCED DIET (24 PPM) FOR STUDY DURATION (STUDY DURATION: 29, Tumor Site: Type of Lesion: LUNG: ALVEOLAR/BRONCHIOLAR ADENOMA, ADENOCARCINOMA, SQUAMOUS CELL CARCINOMA
  carcinogen call: active; positive
Species: RAT, Strain/Sex: WISTAR/MALE, Route: INHALATION, Dose: 0, 30 UG/M3 FUME 22 HR/D 7 D/WK FOR 18 MO (STUDY DURATION: 31 MO), Tumor Site: Type of Lesion: LUNG: ALVEOLAR/BRONCHIOLAR ADENOMA, ADENOCARCINOMA
  carcinogen call: active; positive
Species: RAT, Strain/Sex: WISTAR/MALE, Route: INHALATION, Dose: 0, 30 UG/M3 OF CADMIUM OXIDE DUST 22 HR/D 7 D/WK FOR 18 MO (STUDY DURATION: 29 MO), Tumor Site: Type of Lesion: LUNG: ALVEOLAR/BRONCHIOLAR ADENOMA, ADENOCARCINOMA
  carcinogen call: active; positive
Species: RAT, Strain/Sex: WISTAR/MALE, Route: INHALATION, Dose: 0, 30 UG/M3 OF CADMIUM OXIDE DUST 22 HR/D 7 D/WK FOR 18 MO (STUDY DURATION: 31 MO), Tumor Site: Type of Lesion: LUNG: ALVEOLAR/BRONCHIOLAR ADENOMA, ADENOCARCINOMA, SQUAMOUS CELL CARCINOMA
  carcinogen call: active; positive
Species: RAT, Strain/Sex: WISTAR/MALE, Route: INHALATION, Dose: 0, 30 UG/M3 OF CADMIUM OXIDE FUME 22 HR/D 7 D/WK FOR 18 MO (STUDY DURATION: 31 MO)
  carcinogen call: inactive; negative
Species: RAT, Strain/Sex: WISTAR/MALE, Route: INHALATION, Dose: 0, 90 UG/M3, 8 HR/D, 5D/WK FOR 7.1 MO (STUDY DURATION: 7.1 MO)
  carcinogen call: inactive; negative
Species: RAT, Strain/Sex: WISTAR/MALE, Route: INHALATION, Dose: 0, 90 UG/M3 CADMIUM OXIDE DUST 22 HR/D 7 D/WK FOR 7 MO (STUDY DURATION: 31 MO), Tumor Site: Type of Lesion: LUNG: ADENOMA OR ADENOCARCINOMA OR SQUAMOUS CELL TUMOR
  carcinogen call: active; positive
Species: RAT, Strain/Sex: WISTAR/MALE, Route: INHALATION, Dose: 0, 90 UG/M3 CADMIUM OXIDE DUST 22 HR/D 7 D/WK FOR 7 MO (STUDY DURATION: 31 MO), Tumor Site: Type of Lesion: LUNG: TUMOR
  carcinogen call: active; positive
Species: RAT, Strain/Sex: WISTAR/MALE, Route: INHALATION, Dose: 0, 90 UG/M3 CADMIUM OXIDE DUST DISCONTINOUS EXPOSURE FOR 40 HR/WK FOR 6 MO (STUDY DURATION: 31 MO), Tumor Site: Type of Lesion: LUNG: TUMOR
  carcinogen call: active; positive
Species: RAT, Strain/Sex: WISTAR/MALE, Route: INHALATION, Dose: 0, 90 UG/M3 DUST 8 HR/D 5 D/WK FOR 6 MO (STUDY DURATION: 31 MO), Tumor Site: Type of Lesion: LUNG: ALVEOLAR/BRONCHIOLAR ADENOMA, ADENOCARCINOMA, SQUAMOUS CELL CARCINOMA
  carcinogen call: active; positive
Species: RAT, Strain/Sex: WISTAR/MALE, Route: INHALATION, Dose: 0, 90 UG/M3 DUST 22 HR/D 7 D/WK FOR 7 MO (STUDY DURATION: 31 MO), Tumor Site: Type of Lesion: LUNG: ALVEOLAR/BRONCHIOLAR ADENOMA, ADENOCARCINOMA
  carcinogen call: active; positive
Species: RAT, Strain/Sex: WISTAR/MALE, Route: INHALATION, Dose: 0, 90 UG/M3 OF CADMIUM OXIDE DUST 22 HR/D 7 D/WK FOR 7 MO (STUDY DURATION: 31 MO), Tumor Site: Type of Lesion: LUNG: ALVEOLAR/BRONCHIOLAR ADENOMA, ADENOCARCINOMA
  carcinogen call: active; positive
Species: RAT, Strain/Sex: WISTAR/MALE, Route: INHALATION, Dose: 0, 90 UG/M3 OF CADMIUM OXIDE DUST 40 HR/WK FOR 6 MO (STUDY DURATION: 31 MO)
  carcinogen call: inactive; negative
